One experiment concerns VCaP cells. The experiment can be described thus: VCaP growth inhibition assay (CTG). The settings on record: Homo sapiens, 216 h, 30 pM R1881, 9 days. The format is cell-based. The gist of the method: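 Growth was measured by CTG luminescence after a 9-day exposure of VCaP cells to compound (final 10 fM–100 nM, fivefold steps) in the presence of 30 pM final R1881, in phenol red-free DMEM/5% CSS. IC50 values were derived by nonlinear 4-parameter regression of RLU against concentration.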

For the next experiment, the target named is AR / CBP ternary complex (Homo sapiens, UniProt P10275+Q92793). The experiment can be described thus: Ternary complex formation assay (sandwich ELISA, AR capture, CBP antibody detection) in VCaP cell lysates. The class given is cell-based. The settings on record: treated 1.5 hours, rabbit CBP or p300 antibody detection, average, read-out: Average Ternary Complex. The gist of the method:
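Sandwich ELISA: plates were coated with anti-AR antibody (AR441) and given lysates of VCaP cells treated 1.5 h with bifunctional compound in charcoal-stripped serum. Co-captured CBP or p300 was probed with rabbit mAbs and HRP secondary. Chemifluorescent signal (ex 570/em 585) was read at 0, 5 and 15 min.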
A general note: In an ELISA, binding on a coated surface is turned into a signal by an enzyme label.

AR / CBP ternary complex, sequence (P10275 whole entry): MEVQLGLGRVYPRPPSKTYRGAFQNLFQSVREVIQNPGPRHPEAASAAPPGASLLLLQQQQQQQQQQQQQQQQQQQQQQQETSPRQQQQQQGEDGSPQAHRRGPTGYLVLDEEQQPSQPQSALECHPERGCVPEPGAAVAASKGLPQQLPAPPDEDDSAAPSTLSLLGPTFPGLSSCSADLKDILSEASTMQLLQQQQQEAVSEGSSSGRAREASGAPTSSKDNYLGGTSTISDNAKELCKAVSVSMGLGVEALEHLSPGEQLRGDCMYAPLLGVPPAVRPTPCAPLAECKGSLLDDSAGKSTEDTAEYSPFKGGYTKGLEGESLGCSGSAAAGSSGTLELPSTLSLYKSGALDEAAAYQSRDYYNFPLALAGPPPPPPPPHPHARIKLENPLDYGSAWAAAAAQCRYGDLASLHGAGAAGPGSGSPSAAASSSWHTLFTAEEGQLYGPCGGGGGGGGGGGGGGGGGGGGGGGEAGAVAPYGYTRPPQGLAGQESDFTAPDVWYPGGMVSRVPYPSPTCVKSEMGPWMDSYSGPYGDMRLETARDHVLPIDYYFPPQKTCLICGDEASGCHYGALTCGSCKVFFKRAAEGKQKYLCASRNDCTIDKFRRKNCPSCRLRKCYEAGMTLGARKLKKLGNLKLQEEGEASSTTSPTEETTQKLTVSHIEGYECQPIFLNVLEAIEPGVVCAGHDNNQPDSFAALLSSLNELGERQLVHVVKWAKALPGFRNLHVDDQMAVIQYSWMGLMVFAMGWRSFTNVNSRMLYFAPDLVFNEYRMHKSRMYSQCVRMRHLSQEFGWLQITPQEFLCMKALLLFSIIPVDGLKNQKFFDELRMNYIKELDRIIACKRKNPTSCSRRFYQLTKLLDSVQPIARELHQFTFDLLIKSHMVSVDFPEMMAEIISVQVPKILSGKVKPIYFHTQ
AR / CBP ternary complex, sequence (Q92793 2-2442): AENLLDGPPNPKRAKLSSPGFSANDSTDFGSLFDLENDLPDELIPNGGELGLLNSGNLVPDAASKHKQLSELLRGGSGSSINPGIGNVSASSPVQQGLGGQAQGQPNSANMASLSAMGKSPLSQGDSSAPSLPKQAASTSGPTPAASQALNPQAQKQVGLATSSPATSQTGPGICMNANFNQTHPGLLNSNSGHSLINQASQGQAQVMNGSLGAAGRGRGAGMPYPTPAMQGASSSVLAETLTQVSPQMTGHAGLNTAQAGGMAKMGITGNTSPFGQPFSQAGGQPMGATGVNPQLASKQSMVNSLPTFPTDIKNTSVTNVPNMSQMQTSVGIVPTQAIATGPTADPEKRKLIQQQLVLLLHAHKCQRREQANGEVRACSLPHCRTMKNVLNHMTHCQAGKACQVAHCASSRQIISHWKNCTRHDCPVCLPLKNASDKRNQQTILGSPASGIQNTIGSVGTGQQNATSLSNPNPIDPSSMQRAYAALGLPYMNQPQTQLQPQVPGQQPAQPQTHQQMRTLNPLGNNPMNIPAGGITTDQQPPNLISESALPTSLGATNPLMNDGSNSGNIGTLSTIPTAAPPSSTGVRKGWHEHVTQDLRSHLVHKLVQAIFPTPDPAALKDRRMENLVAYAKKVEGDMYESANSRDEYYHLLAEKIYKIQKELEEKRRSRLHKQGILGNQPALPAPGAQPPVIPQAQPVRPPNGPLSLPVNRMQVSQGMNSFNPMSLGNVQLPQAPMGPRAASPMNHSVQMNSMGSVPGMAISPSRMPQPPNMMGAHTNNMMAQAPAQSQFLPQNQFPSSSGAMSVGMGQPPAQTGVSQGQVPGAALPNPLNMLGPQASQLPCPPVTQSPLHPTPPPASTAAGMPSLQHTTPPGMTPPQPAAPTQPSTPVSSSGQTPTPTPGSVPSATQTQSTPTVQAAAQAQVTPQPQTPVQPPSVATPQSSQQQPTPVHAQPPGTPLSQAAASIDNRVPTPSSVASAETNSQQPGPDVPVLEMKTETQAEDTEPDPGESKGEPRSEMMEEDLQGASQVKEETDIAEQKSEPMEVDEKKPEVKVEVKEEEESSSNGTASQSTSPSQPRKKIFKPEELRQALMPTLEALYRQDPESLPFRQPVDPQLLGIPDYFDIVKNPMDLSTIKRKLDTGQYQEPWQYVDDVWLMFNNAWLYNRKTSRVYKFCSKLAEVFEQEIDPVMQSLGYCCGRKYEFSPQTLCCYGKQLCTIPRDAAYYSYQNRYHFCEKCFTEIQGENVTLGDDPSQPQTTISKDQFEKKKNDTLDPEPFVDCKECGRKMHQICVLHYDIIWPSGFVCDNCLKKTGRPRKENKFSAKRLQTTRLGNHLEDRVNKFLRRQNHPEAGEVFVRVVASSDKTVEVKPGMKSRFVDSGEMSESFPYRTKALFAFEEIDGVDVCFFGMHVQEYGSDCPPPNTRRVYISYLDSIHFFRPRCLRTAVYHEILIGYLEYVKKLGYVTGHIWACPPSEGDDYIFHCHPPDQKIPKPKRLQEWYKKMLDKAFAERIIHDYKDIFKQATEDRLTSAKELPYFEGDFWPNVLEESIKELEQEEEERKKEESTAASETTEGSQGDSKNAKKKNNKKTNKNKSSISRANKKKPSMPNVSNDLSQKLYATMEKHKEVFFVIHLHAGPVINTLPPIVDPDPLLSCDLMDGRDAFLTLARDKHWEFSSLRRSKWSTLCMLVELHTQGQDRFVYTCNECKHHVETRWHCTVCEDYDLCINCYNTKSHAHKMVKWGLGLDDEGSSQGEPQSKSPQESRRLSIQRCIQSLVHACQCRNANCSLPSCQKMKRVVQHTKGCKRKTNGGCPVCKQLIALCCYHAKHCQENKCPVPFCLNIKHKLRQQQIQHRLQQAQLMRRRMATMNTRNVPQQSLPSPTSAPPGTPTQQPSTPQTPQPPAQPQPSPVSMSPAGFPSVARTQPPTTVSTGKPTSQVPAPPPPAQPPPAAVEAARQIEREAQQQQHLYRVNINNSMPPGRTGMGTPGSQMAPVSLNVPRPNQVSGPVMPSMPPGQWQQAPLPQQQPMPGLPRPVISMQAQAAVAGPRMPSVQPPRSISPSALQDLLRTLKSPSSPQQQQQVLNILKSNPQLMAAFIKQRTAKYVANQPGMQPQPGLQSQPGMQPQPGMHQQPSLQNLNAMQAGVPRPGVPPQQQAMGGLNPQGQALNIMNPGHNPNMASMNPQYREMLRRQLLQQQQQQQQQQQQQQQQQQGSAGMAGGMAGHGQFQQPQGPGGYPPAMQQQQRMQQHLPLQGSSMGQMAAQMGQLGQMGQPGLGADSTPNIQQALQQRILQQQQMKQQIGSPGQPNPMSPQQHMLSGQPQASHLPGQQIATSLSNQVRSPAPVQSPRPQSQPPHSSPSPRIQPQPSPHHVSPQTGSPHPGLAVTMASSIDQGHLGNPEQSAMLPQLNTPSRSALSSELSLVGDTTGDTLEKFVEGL

In general, IC50 refers to the midpoint of a concentration-inhibition curve. Low readings indicate greater potency, high ones weaker potency. As for `CC(=O)N1CCc2c(c(-c3cccc4cc(-c5ccc(CCN6CCN(c7ccc(C(=O)N[C@H]8CC[C@H](Oc9ccc(C#N)c(Cl)c9)CC8)nn7)CC6)nc5)ncc34)nn2C)C1` [Compound 30, 6-[4-[2-[5-[8-(5-acetyl-1-methyl-6,7-dihydro-4H-pyrazolo[4,3-c]pyridin-3-yl)-3-isoquinolyl]-2-pyridyl]ethyl]piperazin-1-yl]-N-[4-(3-chloro-4-cyano-phenoxy)cyclohexyl]pyridazine-3-carboxamide], the half-maximal inhibitory concentration (IC50) in the experiment on VCaP cells was no more than 0.1 nM. In addition, the EC50 on AR / CBP ternary complex is less than 1 nM.
On to `Cn1cc(-c2cc3cccc(-c4cc(C5CCN(CC6CCN(c7ccc(C(=O)N[C@H]8CC[C@H](Oc9ccc(C#N)c(Cl)c9)CC8)nn7)CC6)CC5)c5c(c4)n(C)c(=O)n5C)c3cn2)cn1` [Compound 31, N-[4-(3-chloro-4-cyano-phenoxy)cyclohexyl]-6-[4-[[4-[1,3-dimethyl-6-[3-(1-methylpyrazol-4-yl)-8-isoquinolyl]-2-oxo-benzimidazol-4-yl]-1-piperidyl]methyl]-1-piperidyl]pyridazine-3-carboxamide], for which the concentration for half-maximal inhibition (IC50) in the experiment on VCaP cells is no more than 0.1 nM. For the same compound, the EC50 on AR / CBP ternary complex is less than 1 nM.
The corresponding values for `CC(=O)N1CCc2c(c(-c3cccc4cc(-c5cnn(C)c5)ncc34)nn2C2CCN(CC3CCN(c4ccc(C(=O)N[C@H]5CC[C@H](Oc6ccc(C#N)c(Cl)c6)CC5)nn4)CC3)CC2)C1` [Compound 32, 6-[4-[[4-[5-acetyl-3-[3-(1-methylpyrazol-4-yl)-8-isoquinolyl]-6,7-dihydro-4H-pyrazolo[4,3-c]pyridin-1-yl]-1-piperidyl]methyl]-1-piperidyl]-N-[4-(3-chloro-4-cyano-phenoxy)cyclohexyl]pyridazine-3-carboxamide] are no more than 0.1 nM and less than 1 nM.
Compound `Cn1cc(-c2cc3c(cc2C(F)F)N(c2cc(C4CCN(CC5CCN(c6ccc(C(=O)N[C@H]7CC[C@H](Oc8ccc(C#N)c(Cl)c8)CC7)nn6)CC5)CC4)c4c(c2)n(C)c(=O)n4C)CCC3)cn1` [Compound 33, N-[4-(3-chloro-4-cyano-phenoxy)cyclohexyl]-6-[4-[[4-[6-[7-(difluoromethyl)-6-(1-methylpyrazol-4-yl)-3,4-dihydro-2H-quinolin-1-yl]-1,3-dimethyl-2-oxo-benzimidazol-4-yl]-1-piperidyl]methyl]-1-piperidyl]pyridazine-3-carboxamide] came in with an IC50 in the experiment with VCaP cells of 0.1 to 1 nM. The EC50 at AR / CBP ternary complex is less than 1 nM.
Taken in the same sequence, the figures for `C[C@@H]1CC(=O)Nc2cccc(N3CCCc4cc(-c5cnn(CC6CCN(c7ccc(C(=O)N[C@H]8CC[C@H](Oc9ccc(C#N)c(Cl)c9)CC8)nn7)CC6)c5)c(C(F)F)cc43)c2N1` [Compound 34, N-[4-(3-chloro-4-cyano-phenoxy)cyclohexyl]-6-[4-[[4-[7-(difluoromethyl)-1-[(4R)-4-methyl-2-oxo1,3,4,5-tetrahydro-1,5-benzodiazepin-6-yl]-3,4-dihydro-2H-quinolin-6-yl]pyrazol-1-yl]methyl]-1-piperidyl]pyridazine-3-carboxamide] were 0.1 to 1 nM and 1 to 10 nM.
Consider `Cc1cc2c(N3CCN(C)c4cc(-c5cnn(C)c5)c(C#N)cc43)cc(OC3CCN(c4ccc(C(=O)N[C@H]5CC[C@H](Oc6ccc(C#N)c(Cl)c6)CC5)nn4)CC3)cc2n(C)c1=O` [Compound 35, N-[4-(3-chloro-4-cyano-phenoxy)cyclohexyl]-6-[4-[[5-[7-cyano-4-methyl-6-(1-methylpyrazol-4-yl)-2,3-dihydroquinoxalin-1-yl]-1,3-dimethyl-2-oxo-7-quinolyl]oxy]-1-piperidyl]pyridazine-3-carboxamide], for which the IC50 with VCaP cells was in the range of 0.1 to 1 nM. In addition, the EC50 at AR / CBP ternary complex was greater than 100 nM.
